10 compounds from ChEMBL document CHEMBL3853337, “Synthesis and P1' SAR exploration of potent macrocyclic tissue factor-factor VIIa inhibitors” (Bioorg Med Chem Lett, 2016) can be followed below.

Molecules are shown by their SMILES.

Data set [1] is described as follows: Anticlotting activity in human factor 7 immunodepleted plasma mixed with normal pooled plasma from different species assessed compound causing 2 times increase in prothrombin time after 3 mins relative to baseline control. The class given is functional.
Data set [2] is filed under the species Homo sapiens. As to the kind of experiment: Selectivity ratio of Ki for factor 9a (unknown origin) to Ki for human factor 7a ([…] residues).
Data set [3] is filed under the species Homo sapiens. As to the kind of experiment: Selectivity ratio of Ki for factor 10a (unknown origin) to Ki for human factor 7a ([…] residues).
The species entered for data set [4] is Homo sapiens. Nature of the data set: Selectivity ratio of Ki for thrombin (unknown origin) to Ki for human factor 7a ([…] residues).
Data set [5] is filed under the species Homo sapiens. As to the kind of experiment: Selectivity ratio of Ki for trypsin (unknown origin) to Ki for human factor 7a ([…] residues).
The target in the next data set is Coagulation factor X (Homo sapiens, UniProt P00742). As to the kind of experiment: Inhibition of factor 10a (unknown origin) at 25 degC by chromogenic substrate assay.
For a further data set, the target named is Prothrombin (Homo sapiens, UniProt P00734). Nature of the data set: Inhibition of thrombin (unknown origin) at 25 degC by chromogenic substrate assay.
The nature of data set [6]: Inhibition of trypsin (unknown origin) at 25 degC by chromogenic substrate assay. More on the design: species or system Homo sapiens.
Data set [7] addresses Vitamin K-dependent protein C (Homo sapiens, UniProt P04070). As to the kind of experiment: Inhibition of activated protein C (unknown origin) at 37 degC by chromogenic substrate assay.
Data set [8] in a line: Fraction unbound in human plasma. The class given is ADME, cell-free.
The nature of data set [9]: Permeability of the compound at pH 5.5 by PAMPA assay. As to conditions: read-out: permeability. The class given is ADME. A general note: PAMPA measures passive passage across an artificial lipid membrane.
The nature of data set [10]: Permeability of the compound at pH 7.4 by PAMPA assay. The class given is ADME. Conditions: read-out: permeability.
Data set [11] in a line: Metabolic stability in human liver microsomes assessed as compound remaining after 10 mins. Conditions: read-out: Stability. The class given is ADME. A general note: Liver microsomes are a subcellular fraction often used to study metabolism.
Data set [12] deals with T1, Coagulation factor VII/tissue factor (Homo sapiens, UniProt P08709). Nature of the data set: Inhibition of recombinant human TF-factor 7a using factor 10 as substrate at 37 degC. The class given is protein-complex assay.
Another data set has as its target Kallikrein-1 (Homo sapiens, UniProt P06870). Nature of the data set: Inhibition of human kallikrein1 at 37 degC by chromogenic substrate assay.
The nature of data set [13]: Half-life in human liver microsomes. The class given is ADME.
The nature of data set [14]: Clearance in iv dosed dog. The class given is ADME, organism-based, Canis lupus familiaris. As to conditions: in vivo.
A short description of data set [15]: Half life in Beagle dog liver microsomes at 3 uM by LC-MS/MS analysis. The class given is ADME, Canis lupus familiaris.
A short description of data set [16]: Permeability from apical to basolateral side in human Caco2 cells. The class given is ADME, cell-based. Conditions: Caco-2, read-out: permeability.
The nature of data set [17]: Permeability from basolateral to apical side in human Caco2 cells. The class given is ADME, cell-based. Conditions: Caco-2, read-out: permeability. For orientation: Passage across Caco-2 layers is used to estimate intestinal permeability.
Data set [18] can be described thus: Clearance in po or iv dosed Beagle dog by LC-MS/MS analysis. The class given is ADME, organism-based, Canis lupus familiaris. Conditions: in vivo.
Data set [19] in a line: Oral bioavailability in Beagle dog. The class given is ADME, organism-based, Canis lupus familiaris. Conditions: in vivo.
Data set [20] deals with T1, Coagulation factor VII/tissue factor. Nature of the data set: Inhibition of human TF-factor 7a ([…] residues) using factor 10 as substrate after 60 mins. The class given is protein-complex assay.
A short description of data set [21]: Oral bioavailability in iv dosed dog. The class given is ADME, organism-based, Canis lupus familiaris. As to conditions: in vivo.
For data set [22], the species on record is Homo sapiens. Nature of the data set: Selectivity ratio of Ki for human kallikrein1 to Ki for recombinant human TF-factor 7a.

`CCS(=O)(=O)c1ccc2cc1CNC(=O)[C@H](Nc1ccc3c(N)nccc3c1)c1ccc(c(C)c1)CCOC(=O)N2`: the EC in data set [1] amounted to 1.2 µM. Moreover, the Ratio Ki in the data set listed under Homo sapiens [2], in the data set listed under Homo sapiens [3], in the data set filed under Homo sapiens [4] and in the data set listed under Homo sapiens [5] was greater than 500 each time.
Regarding `Cc1cc2ccc1[C@@H](C)COC(=O)Nc1ccc(C3(C(=O)O)CC3)c(c1)CN(C)C(=O)[C@@H]2Nc1ccc2c(N)ncc(F)c2c1`, the Ki (commonly a dissociation constant, usually derived from enzyme kinetics or from competition with a known ligand) on Coagulation factor X was 6.65 µM; on Prothrombin, greater than 13.3 µM; in data set [6], 2.75 µM; in data set [7], 0.07 µM. Also, in [8], the fraction unbound – broadly, the share of the substance not bound to proteins or other matrix – turned out to be 0.044. Also, the values for the Papp in data set [9] and in data set [10] were 33.7 ×10⁻⁶ cm/s and 11.7 ×10⁻⁶ cm/s, respectively. Also, the remaining at 10 min in data set [11] was 100%. The same compound registered an EC in data set [1] of 4.7 µM.
With `Cc1cc2ccc1[C@@H](C)COC(=O)Nc1ccc(C3(C(=O)O)CCC3)c(c1)CN(C)C(=O)[C@@H]2Nc1ccc2c(N)ncc(F)c2c1`, the Ki is 140 pM in data set [12]; 0.85 µM on Coagulation factor X; greater than 13.3 µM on Prothrombin; 3.4 µM in data set [6]; 1.15 µM on Kallikrein-1; 0.725 µM in data set [7]. For the same compound, in [8], the fraction unbound amounted to 0.033. In addition, the Papp in [9] was determined as 20.9 ×10⁻⁶ cm/s; in data set [10], 3.4 ×10⁻⁶ cm/s. Also, the half-life (usually the time needed for the level to fall by half in the phase considered) in [13] was greater than 2 h. Moreover, the clearance in [14] was found to be 56 mL/min/kg. In data set [1], this compound came in with an EC of 7.9 µM.
The compound `Cc1cc2ccc1[C@@H](C)COC(=O)Nc1ccc(C3CC3)c(c1)CN(C)C(=O)[C@@H]2Nc1ccc2c(N)nccc2c1` had a half-life at 3 µM in data set [15] of 3.33 h. In addition, the Papp A→B in data set [16] was less than 1.5 ×10⁻⁶ cm/s. Moreover, in data set [17], the Papp B→A amounted to 9.3 ×10⁻⁶ cm/s. The same compound yielded a clearance in data set [18] of 2.2 mL/min/kg. In addition, the bioavailability (as a rule, dose-corrected exposure relative to a reference, in per cent) in data set [19] stood at 12%. In [20], this compound had an inhibition constant (Ki) of 0.002 µM.
In data set [15], `Cc1cc2ccc1[C@@H](C)COC(=O)Nc1ccc(S(=O)(=O)C3CC3)c(c1)CN(C)C(=O)[C@@H]2Nc1ccc2c(N)nccc2c1` came in with a half-life at 3 µM of 1.77 h. This compound showed a clearance in data set [18] of 29 mL/min/kg. The same compound returned a bioavailability in data set [19] of 1%. Further, the EC in data set [1] was 1.1 µM.
Turning to `Cc1cc2ccc1[C@@H](C)COC(=O)Nc1ccc(C3(C(=O)O)CCOCC3)c(c1)CN(C)C(=O)[C@@H]2Nc1ccc2c(N)ncc(F)c2c1`, the Ki in [12] is 4400 pM; on Coagulation factor X, 1.4 µM; on Prothrombin, greater than 13.3 µM; in data set [6] it was greater than 6.2 µM; at Kallikrein-1, 5.3 µM; in data set [7], 1.6 µM. Also, in data set [8], the fraction unbound was determined as 0.058. Besides, the values for the Papp in data set [9] and in data set [10] were 2.6 ×10⁻⁶ cm/s and 2.1 ×10⁻⁶ cm/s, respectively. The compound also registered a half-life in data set [13] greater than 2 h. Moreover, the EC in data set [1] worked out at 11 µM.
For `Cc1cc2ccc1[C@@H](C)COC(=O)Nc1ccc(C3(C(=O)O)CCCC3)c(c1)CN(C)C(=O)[C@@H]2Nc1ccc2c(N)ncc(F)c2c1`, the Ki is 220 pM in data set [12]; 1.8 µM on Coagulation factor X; greater than 13.3 µM on Prothrombin; 2.2 µM in data set [6]; 1.6 µM at Kallikrein-1; 0.34 µM in data set [7]. This compound had a fraction unbound in [8] of 0.028. Besides, the Papp in data set [9] worked out at 21.1 ×10⁻⁶ cm/s; in data set [10], 4 ×10⁻⁶ cm/s. In data set [14], this compound showed a clearance of 54 mL/min/kg. In data set [1], this compound had an EC of 6.6 µM.
`Cc1cc2ccc1[C@@H](C)COC(=O)Nc1ccc(C3(c4nnn[nH]4)CC3)c(c1)CN(C)C(=O)[C@@H]2Nc1ccc2c(N)ncc(F)c2c1`: the inhibitory constant (Ki) in [12] is 720 pM; at Coagulation factor X, 1.05 µM; on Prothrombin, greater than 13.3 µM; in data set [6] it was 4.9 µM; at Kallikrein-1, 0.96 µM; in [7], 0.175 µM. In data set [8], this compound came in with a fraction unbound of 0.018. Besides, the Papp in [9] was found to be 11.9 ×10⁻⁶ cm/s; in data set [10], 4.8 ×10⁻⁶ cm/s. The compound also returned a half-life in data set [13] of 1.9 h. Besides, the clearance in [14] was 7 mL/min/kg. This compound also showed a bioavailability in [21] of 2%. The compound further came in with an EC in data set [1] of 10 µM.
`Cc1cc2ccc1[C@@H](C)COC(=O)Nc1ccc(C3(C(=O)O)CCCCC3)c(c1)CN(C)C(=O)[C@@H]2Nc1ccc2c(N)ncc(F)c2c1`: the Ki in data set [12] was 60 pM; on Coagulation factor X it was 0.9 µM; on Prothrombin, greater than 13.3 µM; in data set [6], 0.505 µM; at Kallikrein-1, 1.2 µM; in data set [7], 0.155 µM. This compound showed a fraction unbound in data set [8] of 0.017. For the same compound, the Papp in data set [9] stood at 80.5 ×10⁻⁶ cm/s; in data set [10], 8 ×10⁻⁶ cm/s. The same compound came in with a half-life in [13] of 1.57 h. Further, the EC in data set [1] worked out at 18 µM.
For `Cc1cc2ccc1[C@@H](C)COC(=O)Nc1ccc(C3CC3)c(c1)CN(C)C(=O)[C@@H]2Nc1ccc2c(N)ncc(F)c2c1`, the Ki in data set [12] was 18000 pM; at Coagulation factor X, 3 µM; on Prothrombin, 18 µM; in data set [6], greater than 6.2 µM; at Kallikrein-1 it was 0.015 µM; in data set [7] it was 0.22 µM. Besides, the half-life in data set [13] amounted to 0.383 h. Besides, the Ratio Ki in the data set listed under Homo sapiens [22] is 0.8. Moreover, in [1], the EC was found to be 32 µM.
